Results: ChEMBL document CHEMBL1201862, “PubChem BioAssay data set” (2004)
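Cultured in 96-well plates, cells were exposed to test compound for 48 hours across five concentrations. GI50 is the concentration that inhibits growth by half.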 Calls of active or inactive are those of the source. Cut-off read from the data, not from the text of the source: active = GI50 up to about 1.1 µM and inactive = higher.

Assays:
Assay in all cases: NCI tumour cell line growth inhibition, 48 h
UACC-62 = system: UACC-62
UO-31 = system: UO-31
HT-29 = system: HT-29
SR = system: SR
MCF7 = system: MCF7
SF-295 = system: SF-295
SK-OV-3 = system: SK-OV-3
CAKI-1 = system: CAKI-1
HL-60 = system: HL-60
ACHN = system: ACHN
HOP-92 = system: HOP-92
A549 = system: A549
SW-620 = system: SW-620
COLO 205 = system: COLO 205
UACC-257 = system: UACC-257
MDA-MB-231 = system: MDA-MB-231
HCC 2998 = system: HCC 2998
SK-MEL-28 = system: SK-MEL-28
SF-539 = system: SF-539
K562 = system: K562
SF-268 = system: SF-268
RXF 393 = system: RXF 393
PC-3 = system: PC-3
Malme-3M = system: Malme-3M
NCI-H522 = system: NCI-H522
IGROV-1 = system: IGROV-1
NCI-H23 = system: NCI-H23
BT-549 = system: BT-549
OVCAR-4 = system: OVCAR-4
NCI/ADR-RES = system: NCI/ADR-RES
HCT-116 = system: HCT-116
NCI-H460 = system: NCI-H460
OVCAR-3 = system: OVCAR-3
786-0 = system: 786-0
SNB-19 = system: SNB-19
U-251 = system: U-251
OVCAR-8 = system: OVCAR-8
MDA-MB-435 = system: MDA-MB-435
OVCAR-5 = system: OVCAR-5
EKVX = system: EKVX
TK-10 = system: TK-10
DU-145 = system: DU-145
Hs-578T = system: Hs-578T
SNB-75 = system: SNB-75
NCI-H226 = system: NCI-H226
CCRF-CEM = system: CCRF-CEM
SN12C = system: SN12C
LOX IMVI = system: LOX IMVI
SK-MEL-5 = system: SK-MEL-5
SK-MEL-2 = system: SK-MEL-2
HOP-62 = system: HOP-62
A498 = system: A498
MDA-N = system: MDA-N
MOLT-4 = system: MOLT-4
RPMI-8226 = system: RPMI-8226
HCT-15 = system: HCT-15
KM12 = system: KM12
M14 = system: M14
T47D = system: T47D

Structure (SMILES): COC(=O)C1=C(OC(=O)/C(=C/c2ccccc2)c2ccc(Cl)cc2)C(C(=O)OC)[C@@]2(O)[C@@H](C(=O)OC)[C@H](C)C[C@@H]1[C@@H]2C(=O)OC (stereo partly drawn)
- GI50 (UACC-62): > 100 µM (inactive)
- GI50 (UO-31): > 100 µM (inactive)
- GI50 (HT-29): > 100 µM (inactive)
- GI50 (SR): > 100 µM (inactive)
- GI50 (MCF7): > 100 µM (inactive)
- GI50 (SF-295): > 100 µM (inactive)
- GI50 (SK-OV-3): > 100 µM (inactive)
- GI50 (CAKI-1): > 100 µM (inactive)
- GI50 (HL-60): > 100 µM (inactive)
- GI50 (ACHN): > 100 µM (inactive)
- GI50 (HOP-92): 29.1 µM (inactive)
- GI50 (A549): > 100 µM (inactive)
- GI50 (SW-620): > 100 µM (inactive)
- GI50 (COLO 205): > 100 µM (inactive)
- GI50 (UACC-257): > 100 µM (inactive)
- GI50 (MDA-MB-231): > 100 µM (inactive)
- GI50 (HCC 2998): > 100 µM (inactive)
- GI50 (SK-MEL-28): > 100 µM (inactive)
- GI50 (SF-539): > 100 µM (inactive)
- GI50 (K562): 2.37 µM (inactive)
- GI50 (SF-268): > 100 µM (inactive)
- GI50 (RXF 393): > 100 µM (inactive)
- GI50 (PC-3): > 100 µM (inactive)
- GI50 (Malme-3M): > 100 µM (inactive)
- GI50 (NCI-H522): > 100 µM (inactive)
- GI50 (IGROV-1): > 100 µM (inactive)
- GI50 (NCI-H23): > 100 µM (inactive)
- GI50 (BT-549): > 100 µM (inactive)
- GI50 (OVCAR-4): > 100 µM (inactive)
- GI50 (NCI/ADR-RES): > 100 µM (inactive)
- GI50 (HCT-116): > 100 µM (inactive)
- GI50 (NCI-H460): > 100 µM (inactive)
- GI50 (OVCAR-3): > 100 µM (inactive)
- GI50 (786-0): > 100 µM (inactive)
- GI50 (SNB-19): > 100 µM (inactive)
- GI50 (U-251): > 100 µM (inactive)
- GI50 (OVCAR-8): > 100 µM (inactive)
- GI50 (MDA-MB-435): > 100 µM (inactive)
- GI50 (OVCAR-5): > 100 µM (inactive)
- GI50 (EKVX): > 100 µM (inactive)
- GI50 (TK-10): > 100 µM (inactive)
- GI50 (DU-145): > 100 µM (inactive)
- GI50 (Hs-578T): > 100 µM (inactive)
- GI50 (SNB-75): > 100 µM (inactive)
- GI50 (NCI-H226): > 100 µM (inactive)
- GI50 (CCRF-CEM): > 100 µM (inactive)
- GI50 (SN12C): > 100 µM (inactive)
- GI50 (LOX IMVI): > 100 µM (inactive)
- GI50 (SK-MEL-5): > 100 µM (inactive)
- GI50 (SK-MEL-2): > 100 µM (inactive)
- GI50 (HOP-62): > 100 µM (inactive)
- GI50 (A498): > 100 µM (inactive)
- GI50 (MDA-N): > 100 µM (inactive)
- GI50 (MOLT-4): 79.3 µM (inactive)
- GI50 (RPMI-8226): > 100 µM (inactive)
- GI50 (HCT-15): > 100 µM
- GI50 (KM12): > 100 µM (inactive)
- GI50 (M14): > 100 µM (inactive)
- GI50 (T47D): > 100 µM (inactive)

Structure (SMILES): N#Cc1cc2c(cc1C#N)SCCSCCCSCCS2
- GI50 (UACC-62): 9.93 µM (inactive)
- GI50 (UO-31): > 53.3 µM (inactive)
- GI50 (HT-29): > 100 µM (inactive)
- GI50 (SR): 36.4 µM (inactive)
- GI50 (MCF7): 28.2 µM (inactive)
- GI50 (SF-295): 5.47 µM (inactive)
- GI50 (SK-OV-3): 12 µM (inactive)
- GI50 (CAKI-1): 22.8 µM (inactive)
- GI50 (HL-60): > 10 µM (inactive)
- GI50 (ACHN): 6.93 µM (inactive)
- GI50 (HOP-92): 2.49 µM (inactive)
- GI50 (A549): > 83.9 µM (inactive)
- GI50 (SW-620): 29.4 µM (inactive)
- GI50 (COLO 205): > 84.3 µM (inactive)
- GI50 (UACC-257): > 87.9 µM (inactive)
- GI50 (MDA-MB-231): 10 µM (inactive)
- GI50 (HCC 2998): > 72.4 µM (inactive)
- GI50 (SK-MEL-28): > 100 µM (inactive)
- GI50 (SF-539): 10.4 µM (inactive)
- GI50 (K562): > 100 µM (inactive)
- GI50 (SF-268): 10.3 µM (inactive)
- GI50 (RXF 393): 5.92 µM (inactive)
- GI50 (PC-3): 21.9 µM (inactive)
- GI50 (Malme-3M): 20.1 µM (inactive)
- GI50 (NCI-H522): 25.8 µM (inactive)
- GI50 (IGROV-1): 24.7 µM (inactive)
- GI50 (NCI-H23): 16.1 µM (inactive)
- GI50 (BT-549): 15 µM (inactive)
- GI50 (OVCAR-4): 8.93 µM (inactive)
- GI50 (NCI/ADR-RES): 30.5 µM (inactive)
- GI50 (HCT-116): 21.3 µM (inactive)
- GI50 (NCI-H460): 15.2 µM (inactive)
- GI50 (OVCAR-3): 25.2 µM (inactive)
- GI50 (786-0): 5.09 µM (inactive)
- GI50 (SNB-19): 6.79 µM (inactive)
- GI50 (U-251): 5.32 µM (inactive)
- GI50 (OVCAR-8): 12.2 µM (inactive)
- GI50 (MDA-MB-435): > 100 µM (inactive)
- GI50 (OVCAR-5): > 72.3 µM (inactive)
- GI50 (EKVX): > 48.9 µM (inactive)
- GI50 (TK-10): 2.82 µM (inactive)
- GI50 (DU-145): 56.5 µM (inactive)
- GI50 (Hs-578T): 3.96 µM (inactive)
- GI50 (SNB-75): 4.61 µM (inactive)
- GI50 (NCI-H226): 41.1 µM (inactive)
- GI50 (CCRF-CEM): > 48.3 µM (inactive)
- GI50 (SN12C): 41.9 µM (inactive)
- GI50 (LOX IMVI): 6.31 µM (inactive)
- GI50 (SK-MEL-5): > 100 µM (inactive)
- GI50 (SK-MEL-2): 17.8 µM (inactive)
- GI50 (HOP-62): 1.71 µM (inactive)
- GI50 (A498): 40.8 µM (inactive)
- GI50 (MDA-N): > 100 µM (inactive)
- GI50 (MOLT-4): > 89.9 µM (inactive)
- GI50 (RPMI-8226): > 100 µM (inactive)
- GI50 (HCT-15): 14.6 µM
- GI50 (KM12): > 100 µM (inactive)
- GI50 (M14): 38.3 µM (inactive)
- GI50 (T47D): 32.4 µM (inactive)
